Source: paper PMC5923384, “Transporter gene acquisition and innovation in the evolution of Microsporidia intracellular parasites” (Nature Communications, 2018)

Assays:
RaNTT1 = biological target: T1, RaNTT1 (Rozella allomycis, UniProt A0A075B2H2); assay: competition with […]-ATP uptake in NTT-expressing E. coli; type: cell-based; conditions: 50,000x excess unlabelled competitor; PBS
T1 construct: gene O9G_001541; PCR-amplified gene, N-terminal His10 tag, pET16b, in E. coli Rosetta2 DE3 pLysS cells
T1 sequence (A0A075B2H2 1-597): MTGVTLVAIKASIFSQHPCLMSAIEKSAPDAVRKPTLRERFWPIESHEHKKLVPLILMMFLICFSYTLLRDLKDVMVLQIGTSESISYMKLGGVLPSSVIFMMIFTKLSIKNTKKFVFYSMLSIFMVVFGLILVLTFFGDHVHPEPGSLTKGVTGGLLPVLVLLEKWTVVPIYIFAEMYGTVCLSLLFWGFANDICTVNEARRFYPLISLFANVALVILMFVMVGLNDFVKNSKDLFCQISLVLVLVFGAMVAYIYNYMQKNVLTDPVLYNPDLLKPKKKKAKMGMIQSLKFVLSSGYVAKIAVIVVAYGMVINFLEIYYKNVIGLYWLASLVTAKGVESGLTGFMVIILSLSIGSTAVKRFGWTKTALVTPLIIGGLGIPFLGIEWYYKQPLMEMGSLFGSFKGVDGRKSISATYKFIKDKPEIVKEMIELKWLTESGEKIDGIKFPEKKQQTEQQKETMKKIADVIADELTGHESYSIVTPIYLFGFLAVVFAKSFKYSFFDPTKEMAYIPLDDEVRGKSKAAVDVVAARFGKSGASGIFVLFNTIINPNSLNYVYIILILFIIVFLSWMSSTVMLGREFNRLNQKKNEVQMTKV

AncNTTMic = conditions: read-out: apparent Km; PBS; 32P-labelled ATP plus unlabelled ATP; labelled compound
AncNTTRoz/Mic = conditions: read-out: apparent Km; PBS; 32P-labelled ATP plus unlabelled ATP; labelled compound
EcNTT1 = biological target: T2, EcNTT1 (Encephalitozoon cuniculi, UniProt Q8SRA2); assay: […]-nucleotide uptake by NTT-expressing E. coli, […] min; type: cell-based; conditions: PBS; labelled compound
T2 construct: gene NTT1; full-length, N-terminal His10 tag, pET16b, in E. coli Rosetta2 DE3 pLysS cells
T2 sequence (Q8SRA2 1-559): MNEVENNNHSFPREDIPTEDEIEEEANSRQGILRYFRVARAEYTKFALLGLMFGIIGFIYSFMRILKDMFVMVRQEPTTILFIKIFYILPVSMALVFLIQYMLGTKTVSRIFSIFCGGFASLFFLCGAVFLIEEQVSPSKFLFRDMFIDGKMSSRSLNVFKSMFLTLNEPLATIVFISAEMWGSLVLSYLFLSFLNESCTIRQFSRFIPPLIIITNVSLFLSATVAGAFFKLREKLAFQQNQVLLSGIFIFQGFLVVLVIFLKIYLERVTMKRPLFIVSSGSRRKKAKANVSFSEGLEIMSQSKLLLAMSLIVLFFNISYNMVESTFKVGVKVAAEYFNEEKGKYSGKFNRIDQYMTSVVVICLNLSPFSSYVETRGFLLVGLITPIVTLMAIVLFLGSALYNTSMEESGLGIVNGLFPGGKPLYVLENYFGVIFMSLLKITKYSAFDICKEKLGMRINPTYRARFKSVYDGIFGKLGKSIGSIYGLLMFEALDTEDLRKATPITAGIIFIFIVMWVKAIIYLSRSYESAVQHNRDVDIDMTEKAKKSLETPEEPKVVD

SMILES: Nc1ncnc2c1ncn2[C@@H]1O[C@H](COP(=O)(O)OP(=O)(O)O)[C@@H](O)[C@H]1O [ADP]
- residual [32P]-ATP uptake (RaNTT1): transport by R. allomycis RaNTT1 was strongly reduced only by cold ATP and ADP

SMILES: Nc1ncnc2c1ncn2[C@@H]1O[C@H](COP(=O)(O)OP(=O)(O)OP(=O)(O)O)[C@@H](O)[C@H]1O [ATP]
- Km (AncNTTMic): 1.9 ± 1.35 µM
- Km (AncNTTRoz/Mic): 0.8 ± 0.15 µM

SMILES: Nc1nc2c(ncn2[C@@H]2O[C@H](COP(=O)(O)OP(=O)(O)OP(=O)(O)O)[C@@H](O)[C@H]2O)c(=O)[nH]1 [GTP]
- [32P]-nucleotide uptake by NTT-expressing E. coli, 30 min (EcNTT1): GTP is transported at high levels for all of the Microsporidia NTTs
